The values that follow come from patent publication US10800792B2, “Inhibitors of Bruton's tyrosine kinase and method of their use” (JANSSEN PHARMACEUTICA NV, priority 2015, dated 2020).

This test deals with unphosphorylated-BTK kinase domain (UP-BTK), GST-tagged human BTK (389-659aa) (Homo sapiens (Human), UniProt Q06187). Nature of the test: BTK kinase Lanthascreen binding assay. The note with it: unphosphorylated-BTK kinase domain, 50 nM Tracer 236, 60 minutes, pIC50 = negative log of the IC50 in molar. A digest of the protocol: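 Values are pIC50, i.e. negative log of IC50 in molar, derived from concentration–response fitting. Each compound competes with a fluorescently labelled tracer for the unphosphorylated kinase domain.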
In general terms: TR-FRET usually uses a lanthanide donor and a delayed reading to cut background.

Sequence of unphosphorylated-BTK kinase domain (UP-BTK), GST-tagged human BTK (389-659aa) (Q06187 389-659): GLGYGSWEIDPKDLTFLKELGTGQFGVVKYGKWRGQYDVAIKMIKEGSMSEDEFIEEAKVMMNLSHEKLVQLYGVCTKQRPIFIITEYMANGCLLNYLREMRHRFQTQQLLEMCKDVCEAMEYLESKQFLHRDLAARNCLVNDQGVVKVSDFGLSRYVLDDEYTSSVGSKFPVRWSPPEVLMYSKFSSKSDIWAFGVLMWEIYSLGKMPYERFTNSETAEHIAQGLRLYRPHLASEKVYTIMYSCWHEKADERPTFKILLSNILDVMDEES

For the compound `Cc1cc(Oc2ccccc2)ccc1N1C(=O)Nc2c(C(=O)N[C@@H]3CCCN(C(=O)[C@@H](C)CO)C3)sc3nccc1c23` [Example 547, N—((R)-1-((S)-3-Hydroxy-2-methylpropanol)piperidin-3-yl)-5-(2-methyl-4-phenoxyphenyl)-4-oxo-4,5-dihydro-3H-1-thia-3,5,8-triazaacenaphthylene-2-carboxamide], the “BTK_I_binding pIC50” value stood at 7.4.

As to `C=CC(=O)N1C[C@H](NC(=O)c2sc3nccc4c3c2NC(=O)N4c2ccc(Oc3ccccc3)cc2)[C@@H](OC)C1` [Example 548, N-((3S,4S)-1-Acryloyl-4-methoxypyrrolidin-3-yl)-4-oxo-5-(4-phenoxyphenyl)-4,5-dihydro-3H-1-thia-3,5,8-triazaacenaphthylene-2-carboxamide], the “BTK_I_binding pIC50” value is reported as 6.9.

For `Cc1cc(Oc2ccccc2)ccc1N1C(=O)Nc2c(C(=O)N[C@@H]3CCCN(C(=O)/C(F)=C/CN)C3)sc3nccc1c23` [Example 549, (R,Z)—N-(1-(4-Amino-2-fluorobut-2-enoyl)piperidin-3-yl)-5-(2-methyl-4-phenoxyphenyl)-4-oxo-4,5-dihydro-3H-1-thia-3,5,8-triazaacenaphthylene-2-carboxamide], the “BTK_I_binding pIC50” value was found to be 7.2.

For `Cc1cc(Oc2ccccc2)ccc1N1C(=O)Nc2c(C(=O)N[C@@H]3CCCN(C(=O)/C(Cl)=C/CN)C3)sc3nccc1c23` [Example 550, (R,Z)—N-(1-(4-Amino-2-chlorobut-2-enoyl)piperidin-3-yl)-5-(2-methyl-4-phenoxyphenyl)-4-oxo-4,5-dihydro-3H-1-thia-3,5,8-triazaacenaphthylene-2-carboxamide], the “BTK_I_binding pIC50” value is 7.3.

Regarding `CNCC(=O)N1CCC[C@@H](NC(=O)c2sc3nccc4c3c2NC(=O)N4c2cccc(-c3ccccc3)c2)C1` [Example 551, (R)-5-([1,1′-Biphenyl]-3-yl)-N-(1-(2-(methylamino)acetyl)piperidin-3-yl)-4-oxo-4,5-dihydro-3H-1-thia-3,5,8-triazaacenaphthylene-2-carboxamide], the “BTK_I_binding pIC50” value turned out to be 6.8.

On to `CN1CCC[C@@H](NC(=O)c2sc3nccc4c3c2NC(=O)N4c2cccc(-c3ccccc3)c2)C1` [Example 552, (R)-5-([1,1′-Biphenyl]-3-yl)-N-(1-methylpiperidin-3-yl)-4-oxo-4,5-dihydro-3H-1-thia-3,5,8-triazaacenaphthylene-2-carboxamide], for which the “BTK_I_binding pIC50” value was 6.8.

As for `Cc1cccc(-c2cccc(N3C(=O)Nc4c(C(=O)N[C@@H]5CCCNC5)sc5nccc3c45)c2)c1` [Example 553, (R)-5-(3′-Methyl-[1,1′-biphenyl]-3-yl)-4-oxo-N-(piperidin-3-yl)-4,5-dihydro-3H-1-thia-3,5,8-triazaacenaphthylene-2-carboxamide], the “BTK_I_binding pIC50” value amounted to 6.8.

Consider `Cc1ccccc1-c1cccc(N2C(=O)Nc3c(C(=O)N[C@@H]4CCCNC4)sc4nccc2c34)c1` [Example 554, (R)-5-(2′-Methyl-[1,1′-biphenyl]-3-yl)-4-oxo-N-(piperidin-3-yl)-4,5-dihydro-3H-1-thia-3,5,8-triazaacenaphthylene-2-carboxamide], for which the “BTK_I_binding pIC50” value is 6.7.

For the compound `C=CC(=O)N1CCC[C@@H](NC(=O)c2sc3nccc4c3c2NC(=O)N4c2cnc(Oc3ccccc3)nc2)C1` [Example 556, (R)—N-(1-Acryloylpiperidin-3-yl)-4-oxo-5-(2-phenoxypyrimidin-5-yl)-4,5-dihydro-3H-1-thia-3,5,8-triazaacenaphthylene-2-carboxamide], the “BTK_I_binding pIC50” value turned out to be 7.5.

With `C=CC(=O)N1C[C@H](O)C[C@@H](NC(=O)c2sc3nccc4c3c2NC(=O)N4c2ccc(OC(C)C)cc2C)C1` [Example 557, N-((3R,5R)-1-Acryloyl-5-hydroxypiperidin-3-yl)-5-(4-isopropoxy-2-methylphenyl)-4-oxo-4,5-dihydro-3H-1-thia-3,5,8-triazaacenaphthylene-2-carboxamide], the “BTK_I_binding pIC50” value was found to be 7.3.

On to `C=CC(=O)N1CC[C@@H](NC(=O)c2sc3nccc4c3c2NC(=O)N4c2ccc(Oc3ccccc3)c(Cl)c2)C1` [Example 558, (R)—N-(1-Acryloylpyrrolidin-3-yl)-5-(3-chloro-4-phenoxyphenyl)-4-oxo-4,5-dihydro-3H-1-thia-3,5,8-triazaacenaphthylene-2-carboxamide], for which the “BTK_I_binding pIC50” value is reported as 7.7.

With `N#C/C(=C\C1CC1)C(=O)N1CCC[C@@H](NC(=O)c2sc3nccc4c3c2NC(=O)N4c2ccnc(-c3ccccc3)c2)C1` [Example 559, (R,E)-N-(1-(2-Cyano-3-cyclopropylacryloyl)piperidin-3-yl)-4-oxo-5-(2-phenylpyridin-4-yl)-4,5-dihydro-3H-1-thia-3,5,8-triazaacenaphthylene-2-carboxamide], the “BTK_I_binding pIC50” value is reported as 8.2.

Take `C=CC(=O)N1CCC[C@@H](NC(=O)c2sc3nccc4c3c2NC(=O)N4c2cccc(OC3CCCCC3)c2)C1` [Example 560, (R)—N-(1-Acryloylpiperidin-3-yl)-5-(3-(cyclohexyloxy)phenyl)-4-oxo-4,5-dihydro-3H-1-thia-3,5,8-triazaacenaphthylene-2-carboxamide]: the “BTK_I_binding pIC50” value stood at 7.6.

`C=CC(=O)N1CCC[C@@H](NC(=O)c2sc3nccc4c3c2NC(=O)N4c2cccc(OC3CCCC3)c2)C1` [Example 561, (R)—N-(1-Acryloylpiperidin-3-yl)-5-(3-(cyclopentyloxy)phenyl)-4-oxo-4,5-dihydro-3H-1-thia-3,5,8-triazaacenaphthylene-2-carboxamide]: the “BTK_I_binding pIC50” value came out at 7.3.

As for `Cc1cc(OC(C)C)ccc1N1C(=O)Nc2c(C(=O)N[C@@H]3CCN(C(=O)/C=C/CN(C)C)C3)sc3nccc1c23` [Example 562, (R,E)-N-(1-(4-(Dimethylamino)but-2-enoyl)pyrrolidin-3-yl)-5-(4-isopropoxy-2-methylphenyl)-4-oxo-4,5-dihydro-3H-1-thia-3,5,8-triazaacenaphthylene-2-carboxamide], the “BTK_I_binding pIC50” value came out at 6.7.

For `C=CC(=O)N1CCC[C@@H](NC(=O)c2sc3nccc4c3c2NC(=O)N4c2cccc(-c3ccccc3C(F)(F)F)c2)C1` [Example 563, (R)—N-(1-Acryloylpiperidin-3-yl)-4-oxo-5-(2′-(trifluoromethyl)-[1,1′-biphenyl]-3-yl)-4,5-dihydro-3H-1-thia-3,5,8-triazaacenaphthylene-2-carboxamide], the “BTK_I_binding pIC50” value is on record as 7.0.

Turning to `Cc1cc(Oc2ccccc2)ccc1N1C(=O)Nc2c(C(=O)N[C@@H]3CCCN(C(=O)[C@H](C)CO)C3)sc3nccc1c23` [Example 564, N—((R)-1-((R)-3-Hydroxy-2-methylpropanoyl)piperidin-3-yl)-5-(2-methyl-4-phenoxyphenyl)-4-oxo-4,5-dihydro-3H-1-thia-3,5,8-triazaacenaphthylene-2-carboxamide], the “BTK_I_binding pIC50” value is 7.2.

In the case of `C=CC(=O)N1CCC[C@@H](NC(=O)c2sc3nccc4c3c2NC(=O)N4c2cccc(OC(C)C)c2)C1` [Example 565, (R)—N-(1-Acryloylpiperidin-3-yl)-5-(3-isopropoxyphenyl)-4-oxo-4,5-dihydro-3H-1-thia-3,5,8-triazaacenaphthylene-2-carboxamide], the “BTK_I_binding pIC50” value worked out at 7.0.

For `C=CC(=O)N1CCC[C@@H](NC(=O)c2sc3nccc4c3c2NC(=O)N4c2cccc(C(C)=O)c2)C1` [Example 566, (R)-5-(3-Acetylphenyl)-N-(1-acryloylpiperidin-3-yl)-4-oxo-4,5-dihydro-3H-1-thia-3,5,8-triazaacenaphthylene-2-carboxamide], the “BTK_I_binding pIC50” value is on record as 6.6.

For `C=CC(=O)N1CC[C@@H](NC(=O)c2sc3nccc4c3c2NC(=O)N4c2ccnc(-c3ccccc3)c2)C1` [Example 567, (R)—N-(1-Acryloylpyrrolidin-3-yl)-4-oxo-5-(2-phenylpyridin-4-yl)-4,5-dihydro-3H-1-thia-3,5,8-triazaacenaphthylene-2-carboxamide], the “BTK_I_binding pIC50” value is listed as 7.4.

For `C=CC(=O)N1CCC[C@@H](NC(=O)c2sc3nccc4c3c2NC(=O)N4c2cccc(OC(F)(F)F)c2)C1` [Example 568, (R)—N-(1-Acryloylpiperidin-3-yl)-4-oxo-5-(3-(trifluoromethoxy)phenyl)-4,5-dihydro-3H-1-thia-3,5,8-triazaacenaphthylene-2-carboxamide], the “BTK_I_binding pIC50” value was found to be 7.4.

As to `C=CC(=O)N1CCC[C@@H](NC(=O)c2sc3nccc4c3c2NC(=O)N4c2cccc(C3CC3)c2)C1` [Example 569, (R)—N-(1-Acryloylpiperidin-3-yl)-5-(3-cyclopropylphenyl)-4-oxo-4,5-dihydro-3H-1-thia-3,5,8-triazaacenaphthylene-2-carboxamide], the “BTK_I_binding pIC50” value is 7.0.

With `CN(C)C/C=C/C(=O)N1CC[C@@H](NC(=O)c2sc3nccc4c3c2NC(=O)N4c2cccc(-c3ccccc3)c2)C1` [Example 570, (R,E)-5-([1,1′-Biphenyl]-3-yl)-N-(1-(4-(dimethylamino)but-2-enoyl)pyrrolidin-3-yl)-4-oxo-4,5-dihydro-3H-1-thia-3,5,8-triazaacenaphthylene-2-carboxamide], the IC50 (read-out: BTK_I_binding pIC50 (converted)) is 0.0631 µM.

For the compound `COC[C@@H](C)C(=O)N1CCC[C@@H](NC(=O)c2sc3nccc4c3c2NC(=O)N4c2ccc(Oc3ccccc3)cc2C)C1` [Example 571, N—((R)-1-((R)-3-Methoxy-2-methylpropanoyl)piperidin-3-yl)-5-(2-methyl-4-phenoxyphenyl)-4-oxo-4,5-dihydro-3H-1-thia-3,5,8-triazaacenaphthylene-2-carboxamide], the “BTK_I_binding pIC50” value is listed as 7.0.

In the case of `CN(C)CC(=O)N1CCC[C@@H](NC(=O)c2sc3nccc4c3c2NC(=O)N4c2ccc(Oc3ccccc3)c(Cl)c2)C1` [Example 572, (R)-5-(3-Chloro-4-phenoxyphenyl)-N-(1-(2-(dimethylamino)acetyl)piperidin-3-yl)-4-oxo-4,5-dihydro-3H-1-thia-3,5,8-triazaacenaphthylene-2-carboxamide], the “BTK_I_binding pIC50” value came out at 7.1.
